Test results: patent US20250052985A1, “SYSTEM AND METHOD FOR QUANTITATIVE PHASE IMAGING FOR MULTI-PARAMETRIC SCREENING OF TUMOR THERAPY RESPONSE” (UNIVERSITY OF UTAH RESEARCH FOUNDATION, priority 2023, published 2025)
Values joined by “and” are separate entries in the source; they are usually repeats but may differ in a detail not shown here. Equal values may be shown once. Read-outs that look alike come from different tables or passages of the source.

Key:
[1] = tested on: BT-474 cells; test: cells; conditions: for Max Asymptote / Min Asymptote: BT-474, 4-parameter Hill fit of mean SGR vs concentration, one line per replicate; for DoR QPI: depth of response; for EC50: Homo sapiens
From the text: (§1) In some embodiments, breast cancer cell lines are imaged, representing diverse clinical subtypes, summarized in Table 2 below, using a QPI microscope (FIG. 1A) based on differential phase contrast (DPC) microscopy and phase reconstruction via a QPI microscope system. DPC is used for image acquisition and phase reconstruction because DPC's flexible design may be customized for high throughput phase measurements. […] As illustrated in the embodiment of FIG. 1A, a QPI microscope system 100 conducts assays in a 96-well plate (e.g., a well-plate 105) with 6-point dose response curves and up to five therapies in triplicate including solvent controls, summarized in Table 4 below. As described below, in reference to FIG. 1A, a growth response of cells is measured noninvasively using QPI via a QPI microscope system 110 before being assayed using a CTG reader 115.
(§2) FIG. 1B illustrates a timeline plot 200 showing two plates (e.g., two, separate well-plates 105) set up in parallel to measure cell viability. With reference to FIG. 1B, two plates are set-up simultaneously for each experiment. A first plate 205 is incubated for 27 hours (h) post drug exposure prior to CTG analysis (3 h equilibration+24 h of imaging), which measures cell adenosine triphosphate (ATP) content as a surrogate for cell viability. A second plate 210 is imaged for 72 h after 3 h equilibration (e.g., 75 h) and followed by CTG. […] The imaging locations are imaged for 72 h, as shown by images 1700-1715 of FIG. 7.
(§3) In some embodiments, a dose-dependent change in growth, as indicated by a change in the rate of mass accumulation or loss, is a parameter that can be extracted from QPI dose-response data. […] Individual specific growth rate measurements are indicated by points in the distribution of the graph 1200 of FIG. 2A. Blue is indicative of the DMSO control and red is indicative of doxorubicin. The black outline is a kernel density function fit to the distribution of specific growth rates for each condition (e.g., *p<0.05, **p<0.01). In some embodiments, the average SGR of each condition is fit to a sigmoid dose-response curve using a Hill equation. For example, computed logistic fit parameters using a 4-parameter Hill model via the QPI microscope system 110 for all conditions are summarized in Tables 5-8 below. To determine if there is a response, as illustrated by FIG. 2B, the QPI microscope system 110 tests goodness of fit, adjusts for degrees of freedom using an F-test at significance p<0.01 by comparison to a flat line, as an indicator of no response. For cases with a better fit to the Hill equation, the 4-parameter Hill curve may be used by the QPI microscope system 110 to determine the EC50, a measure of sensitivity to therapy because it represents the effective concentration at which 50% of the cells respond to therapy, as illustrated by FIG. 10. […] A 4-parameter Hill curve is fit to each dose response plot to extract the depth of response and EC50 for each cell/drug pair. A flat line represents no response due to failure of the F-test to reject the null hypothesis that the logistic fit is indistinguishable from a flat line. […] Each color indicates a different drug or therapy used.

[2] = tested on: MCF-7 cells; test: cells; conditions: for Max Asymptote / Min Asymptote: MCF-7, 4-parameter Hill fit of mean SGR vs concentration, one line per replicate; for EC50: Homo sapiens; for DoR QPI / ToR 20 μM: MCF-7 cell line; for DoR QPI: depth of response; for ToR 20 μM: time of response at 20 μM
From the text: as §1, §2, §3

[3] = tested on: BT-474 cells; test: CellTiter-Glo (CTG) ATP viability assay, BT-474; assay type: cell-based; conditions: for Min Asymptote: BT-474, Hill fit of luminescence normalized to solvent control, one line per replicate; for DoR CTG: BT-474 cell line, depth of response; for EC50: Homo sapiens
Protocol: (§4) CTG (e.g., read by the CTG reader 115) is a cell viability assay that quantifies the amount of ATP present at the end of an experiment as an indicator of the number of live cells. The electronic controller 155 measures ATP content in each condition as a readout by a luminescent signal, which is normalized by the luminescence of the control (e.g., a control well) to determine cell viability relative to on-plate controls. In some embodiments, the CTG assay is performed by first removing 100 μL of media from each well on the well-plate 105, which is then replaced with an equal amount of CellTiter-Glo reagent (e.g., Promega, G7572). Assayed plates may be shaken at 500 RPM for 20 minutes and allowed to rest for 10 minutes. In some instances, 100 μL of volume from each well is transferred to a white 96-well plate (e.g., Perkin Elmer, 6005680). The electronic controller 155 collects luminescence data from each well using an Envision plate reader (e.g., Perkin Elmer) and normalized against the solvent control to measure ATP content. The electronic controller 155 fits a 4-parameter hill curve to the dose response to determine the EC50 and depth of response.

[4] = tested on: MCF-7 cells; test: CellTiter-Glo (CTG) ATP viability assay, MCF-7; assay type: cell-based; conditions: for Min Asymptote: MCF-7, Hill fit of luminescence normalized to solvent control, one line per replicate; for EC50: Homo sapiens; for DoR CTG: MCF-7 cell line, depth of response
Protocol: as §4

[5] = tested on: MDA-MB-231 cells; test: CellTiter-Glo (CTG) ATP viability assay, MDA-MB-231; assay type: cell-based; conditions: for Min Asymptote: MDA-MB-231, Hill fit of luminescence normalized to solvent control, one line per replicate; for EC50: Homo sapiens; for DoR CTG: MDA-MB-231 cell line, depth of response
Protocol: as §4

[6] = MCF7, read-out: EC50, QPI, MCF-7 cell line, QPI growth rate
[7] = BT-474, 24 h, 24 h CTG, BT-474, Hill fit, read-out: log10(EC50) (converted)
[8] = MCF7, MCF-7 cell line, CellTiter-Glo, read-out: EC50, CTG (converted)
[9] = MDA-MB-231, 72 h, 72 h CTG, MDA-MB-231, Hill fit, read-out: log10(EC50) (converted)

## O=c1[nH]cc(F)c(=O)[nH]1 [5FU, 5-Fluorouracil]
[1]; 24 h QPI
  Max Asymptote: 0.01107
  Min Asymptote: 0.009021
[1]; 24 h QPI, BT-474, Hill fit
  Hill Slope: 0.9134
[1]; 72 h QPI
  Max Asymptote: 0.007708 and 0.007733
  Min Asymptote: 0.008643 and 0.009665
[1]; 72 h QPI, BT-474, Hill fit
  Hill Slope: 1.5745 and 1.1389
[1]; BT-474 cell line
  DoR QPI: 0.2
[1]; BT-474, 24 h, read-out: log10(EC50), 24 h QPI, BT-474, Hill fit (converted), EC50 in μM per Table 1
  EC50: 0.0682 µM
[1]; BT-474, read-out: EC50, QPI, BT-474 cell line, QPI growth rate
  EC50: 0.1 µM
[2]; 24 h QPI
  Max Asymptote: 0.02676 and 0.02665 (2×)
  Min Asymptote: 0.01382 and 0.007436 (2×)
[2]; 24 h QPI, MCF-7, Hill fit, EC50 in μM per Table 1
  log10(EC50): −1.151
[2]; 72 h QPI
  Min Asymptote: 0.0232 and 0.02426 and 0.02866
[2]; MCF7, 24 h, read-out: log10(EC50), 24 h QPI, MCF-7, Hill fit (converted), EC50 in μM per Table 1
  EC50: 8.57 µM
[2]; [6]
  EC50: 25.7 µM
[2]
  DoR QPI: 1.0
  ToR 20 μM: 9.4
[3]; 24 h CTG, BT-474, Hill fit
  Hill Slope: 0.5388
[3]; 24 h CTG
  Min Asymptote: 0.925
[3]; 72 h CTG, BT-474, Hill fit
  Hill Slope: 1.185 and 1.042
  log10(EC50): 0.7667
[3]; 72 h CTG
  Min Asymptote: 0.938 (2×) and 0.9222
[3]; CellTiter-Glo
  DoR CTG: 0.1
[3]; [7]
  EC50: 10900 nM
[3]; BT-474, BT-474 cell line, CellTiter-Glo, read-out: EC50, CTG
  EC50: 100 nM
[4]; 24 h CTG, MCF-7, Hill fit
  Hill Slope: 7.081
[4]; 24 h CTG
  Min Asymptote: 0.9238
[4]; 72 h CTG, MCF-7, Hill fit
  Hill Slope: 1.254 and 1.059 and 1.202
[4]; 72 h CTG
  Min Asymptote: 0.1952 and 0.003653 and 0.01678
[4]; MCF7, 24 h, 24 h CTG, MCF-7, Hill fit, read-out: log10(EC50) (converted)
  EC50: 1890 nM
[4]; [8]
  EC50: 10800 nM
[4]; CellTiter-Glo
  DoR CTG: 0.9
[5]; 72 h CTG, MDA-MB-231, Hill fit
  Hill Slope: 1.997
[5]; 72 h CTG
  Min Asymptote: 0.4937
[5]; [9]
  EC50: 6 µM
[5]; MDA-MB-231, MDA-MB-231 cell line, CellTiter-Glo, read-out: EC50, CTG
  EC50: 6 µM
[5]; CellTiter-Glo
  DoR CTG: 0.5

## CC(=O)O[C@@]12CO[C@@H]1C[C@H](O)[C@@]1(C)C(=O)[C@H](O)C3=C(C)[C@@H](OC(=O)[C@H](O)[C@@H](NC(=O)OC(C)(C)C)c4ccccc4)C[C@@](O)([C@@H](OC(=O)c4ccccc4)[C@H]21)C3(C)C [Docetaxel]
[1]; 24 h QPI
  Max Asymptote: 0.009874 and 0.01051
  Min Asymptote: 0.00518 and 0.00803
[1]; 24 h QPI, BT-474, Hill fit
  Hill Slope: 0.2745 and 0.5361
[1]; 72 h QPI
  Max Asymptote: 0.00164 and 0.002702
  Min Asymptote: 0.009387 and 0.007464
[1]; 72 h QPI, BT-474, Hill fit
  Hill Slope: 3.8183 and 2.5139
[1]; 72 h QPI, BT-474, Hill fit, EC50 in μM per Table 1
  log10(EC50): 2.1891
[1]; BT-474, 0.016 μM
  growth rate and heterogeneity over time: decreased growth rate and increased heterogeneity
[1]; BT-474, 0.4 μM
  growth rate and heterogeneity over time: reduced growth rate and increased heterogeneity
[1]; BT-474, 2 μM
  growth rate and heterogeneity over time: population heterogeneity is increased and growth rate decreases
[1]; BT-474, 20 μM
  growth rate and heterogeneity over time: decreases, while the heterogeneity for both populations increases
[1]; BT-474, 20 μM, with significant decrease in mean response
  change of population spread (SD) of SGR: no significant change to the spread
[1]; BT-474, FIG. 5E, 22, 23
  response of growth rate and heterogeneity to treatment: both reduced growth rate and slightly increased heterogeneity
[1]; BT-474 cell line
  DoR QPI: 0.8
[1]; BT-474 cell line, time of response at 20 μM
  ToR 20 μM: 10.9
[1]; BT-474, 72 h, read-out: log10(EC50), 72 h QPI, BT-474, Hill fit (converted), EC50 in μM per Table 1
  EC50: 0.00383 µM
[2]; 24 h QPI
  Max Asymptote: 0.02457 and 0.02891 and 0.02213
  Min Asymptote: 0.01057 and 0.01168 and 0.008144
[2]; 24 h QPI, MCF-7, Hill fit
  Hill Slope: 1.6196 and 1.4393 and 1.4829
[2]; 72 h QPI
  Max Asymptote: 0.00408 and 0.005816 and 0.004488
  Min Asymptote: 0.021 and 0.02567 and 0.0188
[2]; 72 h QPI, MCF-7, Hill fit
  Hill Slope: 1.6038 and 0.9248 and 1.3228
[2]; [6]
  EC50: 0.000912 µM
[2]
  DoR QPI: 0.8
  ToR 20 μM: 5.9
[3]; 24 h CTG, BT-474, Hill fit
  Hill Slope: 7.175
[3]; 24 h CTG
  Min Asymptote: 0.8491
[3]; 72 h CTG, BT-474, Hill fit
  Hill Slope: 7.938 and 5.667
  log10(EC50): 2.403
[3]; 72 h CTG
  Min Asymptote: 0.2805 and 0.3348
[3]; CellTiter-Glo
  DoR CTG: 0.6
[3]; [7]
  EC50: 13.7 nM
[3]; BT-474, 72 h, 72 h CTG, BT-474, Hill fit, read-out: log10(EC50) (converted)
  EC50: 3.34 nM
[4]; 72 h CTG, MCF-7, Hill fit
  Hill Slope: 5.079 and 4.965
  log10(EC50): 3.291
[4]; 72 h CTG
  Min Asymptote: 0.368 (2×) and 0.4065
[4]; MCF7, 72 h, 72 h CTG, MCF-7, Hill fit, read-out: log10(EC50) (converted)
  EC50: 0.455 nM
[4]; [8]
  EC50: 0.501 nM
[4]; CellTiter-Glo
  DoR CTG: 0.6
[5]; 24 h CTG, MDA-MB-231, Hill fit
  Hill Slope: 7.175
[5]; 24 h CTG
  Min Asymptote: 0.8491
[5]; 72 h CTG, MDA-MB-231, Hill fit
  log10(EC50): 2.342
[5]; 72 h CTG
  Min Asymptote: 0.3348 and 0.2561
[5]; MDA-MB-231, 24 h, 24 h CTG, MDA-MB-231, Hill fit, read-out: log10(EC50) (converted)
  EC50: 0.0137 µM
[5]; [9]
  EC50: 0.00396 µM
[5]; CellTiter-Glo
  DoR CTG: 0.7
